One sequence from patent US12391962B2, “Targeting peptide to deliver a compound to oocytes” (THE PENN STATE RESEARCH FOUNDATION, priority 2017, dated 2025) can be followed below.

Assay [1] has as its system B. tabaci white gene. Put plainly: Knockout of the B. tabaci white gene by ReMOT Control (adult female injection). It is filed as in vivo, Bemisia tabaci. The settings on record: BtKV as the targeting peptide. Here is the method: The females were injected and placed on a piece of soybean leaflet in a petri dish with a moist paper towel wrapped around the stem and another paper towel on the bottom plate to prolong the life of the leaflet. Water and liquid fertilizer were added as needed. Females were removed from the leaflet 2 weeks post injection. The petri dishes were incubated at 28° C., 16L/8D cycle, in a humidified Heratherm IMH750-S reach-in chamber, and the progeny of injected females screened visually for altered eye color in nymphs or adults using an Olympus SZX7 stereomicroscope. Mutations in insects showing altered eye color were confirmed by PCR using PHIRE Tissue Direct PCR Master Mix (Thermo Fischer Scientific), the amplicon was cloned into pJET1.2, and clones were submitted for Sanger sequencing.
For proof of principle gene editing experiments, we chose the white gene, which is an ABC transporter protein responsible for transport of ommochrome pigments into the eyes.

Assay [2] relates to B. tabaci ovaries. Put plainly: Validation of the BtKV ovary targeting ligand (epifluorescence of dissected ovaries). In kind it is in vivo, Bemisia tabaci. The settings on record: ovaries dissected 24 hours post-injection; vs PBS-injected controls. Here is the method: For initial experiments B. tabaci adults of unknown age and mating status were aspirated from the colony cage into 2-dram screw cap vials, placed in ice to anesthetize the insects, sexed, and transferred to a standard plain glass slide with double-sided tape on a chill table. For later experiments we established a synchronous colony so that we could control for the age of injected insects (see below). For localization of BtKV fusion protein into the embryos, female B. tabaci were injected in the abdomen with BtKV-mCherry fusion protein (3 mg/ml) or PBS control using quartz capillary needles. Samples were collected 24 hours post injection and ovaries dissected onto a concavity microscope slide with a glass coverslip and imaged by epifluorescence microscopy.
We therefore designed a new targeting peptide suitable for this insect species based on its endogenous vitellogenin protein (“BtKV”; […] (SEQ ID NO: 30)) (see methods). B. tabaci oocyte development is asynchronous with stage I, II, III, and IV at 11 days post eclosion or older^19 where oocytes are always developing. Developmental phase II oocytes have the highest amount of vitellogenin uptake via endocytosis and nutrient cord^19. After injection of BtKV-mCherry into reproductive adult B. tabaci females, ovaries were dissected after 24 hours and visualized for red fluorescence.

Turning to “KPYGVYKTMEDSV (listed as Bemisia tabaci) [BtKV]”, the “independent replicate injection experiments from which white-eye nymphal offspring were recovered” value in assay [1] is recorded as 7 of 14. Besides, the “fluorescent cargo in oocytes” value in assay [2] is “visible in dissected mature oocytes”.
